# Literature values in patent publication US8617618B2, “Topical compositions containing magaldrate” (Difass International S.R.L., priority 2007, dated 2013).
# Key:
# [1] = in water and alcohol; white, crystalline powder
# [2] = humans, oral intake
# [3] = single and repeated oral doses
# gastric pH = details: rapid, persistent ability to maintain the gastric pH
substance,measurement,setting,value
Magaldrate,solubility,[1],insoluble
same,absorption of aluminium or magnesium,[2],not followed by any significant absorption
same,toxicity,[3],almost non-toxic
same,gastric pH maintained,gastric pH,3-5
